ChEMBL document CHEMBL4270534, “Novel carbazole-triazole conjugates as DNA-targeting membrane active potentiators against clinical isolated fungi” (Eur J Med Chem, 2018)
In brackets after ≈: the same amount, converted by molar mass. Activity calls are given as the source filed them. The calls are words filed in the database; no cut-off is given here.

Key:
[1] = system: Candida albicans; assay: Antifungal activity against Candida albicans at MIC after 10 serial passages; type: functional, organism-based
[2] = system: Candida albicans; assay: Antifungal activity against Candida albicans after 24 hrs by two-fold broth microdilution assay; type: functional
[3] = system: Candida tropicalis; assay: Antifungal activity against Candida tropicalis after 24 hrs by two-fold broth microdilution assay; type: functional
[4] = system: Aspergillus fumigatus; assay: Antifungal activity against Aspergillus fumigatus after 24 hrs by two-fold broth microdilution assay; type: functional
[5] = system: Candida albicans; assay: Antifungal activity against Candida albicans ATCC 90023 after 24 hrs by two-fold broth microdilution assay; type: functional; details: ATCC 90023, 24 h
[6] = system: Candida parapsilosis; assay: Antifungal activity against Candida parapsilosis ATCC 22019 after 24 hrs by two-fold broth microdilution assay; type: functional; details: Lodderomyces parapsilosis, ATCC 22019, 24 h
[7] = system: Candida tropicalis; assay: Potency index, ratio of fluconazole MIC to test compound MIC for Candida tropicalis; type: functional
[8] = system: Candida parapsilosis; assay: Potency index, ratio of fluconazole MIC to test compound MIC for Candida parapsilosis ATCC 22019; type: functional
[9] = system: Candida albicans; assay: Fungicidal activity against Candida albicans incubated for 24 hrs followed by plating onto tryptic soy agar medium and measured after 24 hrs by broth microdilution method; type: functional
[10] = system: Candida tropicalis; assay: Fungicidal activity against Candida tropicalis incubated for 24 hrs followed by plating onto tryptic soy agar medium and measured after 24 hrs by broth microdilution method; type: functional
[11] = system: Candida parapsilosis; assay: Fungicidal activity against Candida parapsilosis ATCC 22019 incubated for 24 hrs followed by plating onto tryptic soy agar medium and measured after 24 hrs by broth microdilution method; type: functional; details: Lodderomyces parapsilosis, ATCC 22019, 24 h
[12] = system: Candida albicans; assay: Ratio of MFC to MIC for Candida albicans; type: functional
[13] = system: Candida tropicalis; assay: Ratio of MFC to MIC for Candida tropicalis; type: functional
[14] = system: Candida parapsilosis; assay: Ratio of MFC to MIC for Candida parapsilosis ATCC 22019; type: functional
[15] = system: Candida albicans; assay: Synergistic antifungal activity against Candida albicans after 18 hrs in presence of fluconazole by checkerboard assay; type: functional
[16] = system: Candida tropicalis; assay: Synergistic antifungal activity against Candida tropicalis after 18 hrs in presence of fluconazole by checkerboard assay; type: functional
[17] = system: Aspergillus fumigatus; assay: Synergistic antifungal activity against Aspergillus fumigatus after 18 hrs in presence of fluconazole by checkerboard assay; type: functional
[18] = system: Candida albicans; assay: Synergistic antifungal activity against Candida albicans assessed as FIC index after 18 hrs in presence of fluconazole by checkerboard assay; type: functional
[19] = system: Candida tropicalis; assay: Synergistic antifungal activity against Candida tropicalis assessed as FIC index after 18 hrs in presence of fluconazole by checkerboard assay; type: functional
[20] = system: Aspergillus fumigatus; assay: Synergistic antifungal activity against Aspergillus fumigatus assessed as FIC index after 18 hrs in presence of fluconazole by checkerboard assay; type: functional
[21] = system: Candida albicans; assay: Potentiation of fluconazole-induced antifungal activity against Candida albicans at MIC after 16 serial passages; type: functional, organism-based
[22] = system: Candida albicans; assay: Induction of cytoplasmic membrane depolarization in Candida albicans measured for 300 secs by DiSC3-5 dye based fluorescence spectral analysis; type: functional, organism-based
[23] = system: Calf thymus DNA; assay: Binding affinity to calf thymus DNA assessed as hypochromic shift up to 2 x 10^-5mol/L by UV absorption spectral analysis; type: nucleic-acid assay; details: Bos taurus
[24] = system: Calf thymus DNA; assay: Binding affinity to calf thymus DNA by UV absorption spectral analysis; type: nucleic-acid assay; details: Bos taurus
[25] = system: Calf thymus DNA; assay: Displacement of neutral dye from calf thymus DNA up to 2 x 10^-5mol/L by UV absorption spectra analysis; type: nucleic-acid assay; details: Bos taurus
[26] = system: Calf thymus DNA; assay: Binding affinity to calf thymus DNA assessed as Stern-Volmer quenching constant at 1 x 10^-5 mol/L in presence of potassium iodide by fluorescence assay (reference value: 12.9 L/mol); type: nucleic-acid assay; details: Bos taurus
[27] = target: Albumin (Homo sapiens, UniProt P02768); assay: Binding affinity to human serum albumin assessed as increase in peak intensity at tryptophan/tyrosine/phenylalanine residue up to 2 x 10^-5mol/L by UV-vis absorption spectra analysis; type: ADME; details: isolated protein
Albumin, sequence (P02768 whole entry): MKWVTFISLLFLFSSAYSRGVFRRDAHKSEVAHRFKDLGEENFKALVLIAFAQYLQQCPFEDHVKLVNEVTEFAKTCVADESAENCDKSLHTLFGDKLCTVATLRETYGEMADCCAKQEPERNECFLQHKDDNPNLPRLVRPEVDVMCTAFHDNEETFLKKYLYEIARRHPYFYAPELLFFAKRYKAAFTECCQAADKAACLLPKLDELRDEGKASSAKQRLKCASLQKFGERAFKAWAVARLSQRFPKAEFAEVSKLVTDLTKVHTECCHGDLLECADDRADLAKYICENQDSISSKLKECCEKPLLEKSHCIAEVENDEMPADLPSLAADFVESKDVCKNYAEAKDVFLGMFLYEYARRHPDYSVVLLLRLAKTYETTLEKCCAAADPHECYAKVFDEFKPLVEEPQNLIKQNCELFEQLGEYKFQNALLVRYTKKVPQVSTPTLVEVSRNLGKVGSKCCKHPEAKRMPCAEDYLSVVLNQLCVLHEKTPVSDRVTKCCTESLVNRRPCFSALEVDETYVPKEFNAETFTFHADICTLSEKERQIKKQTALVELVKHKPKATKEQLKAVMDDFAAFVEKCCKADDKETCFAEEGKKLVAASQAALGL

[28] = system: Staphylococcus aureus; assay: Antibacterial activity against Staphylococcus aureus after 24 hrs by micro broth dilution method; type: functional
[29] = system: Staphylococcus aureus; assay: Antibacterial activity against methicillin-resistant Staphylococcus aureus after 24 hrs by micro broth dilution method; type: functional
[30] = system: Enterococcus faecalis; assay: Antibacterial activity against Enterococcus faecalis after 24 hrs by micro broth dilution method; type: functional
[31] = system: Staphylococcus aureus; assay: Antibacterial activity against Staphylococcus aureus ATCC 25923 after 24 hrs by micro broth dilution method; type: functional; details: ATCC 25923, 24 h
[32] = system: Staphylococcus aureus; assay: Antibacterial activity against Staphylococcus aureus ATCC 29213 after 24 hrs by micro broth dilution method; type: functional; details: ATCC 29213, 24 h
[33] = system: Klebsiella pneumoniae; assay: Antibacterial activity against Klebsiella pneumoniae after 24 hrs by micro broth dilution method; type: functional
[34] = system: Escherichia coli; assay: Antibacterial activity against Escherichia coli after 24 hrs by micro broth dilution method; type: functional
[35] = system: Acinetobacter baumannii; assay: Antibacterial activity against Acinetobacter baumannii after 24 hrs by micro broth dilution method; type: functional
[36] = system: Pseudomonas aeruginosa; assay: Antibacterial activity against Pseudomonas aeruginosa after 24 hrs by micro broth dilution method; type: functional
[37] = system: Pseudomonas aeruginosa; assay: Antibacterial activity against Pseudomonas aeruginosa ATCC 27853 after 24 hrs by micro broth dilution method; type: functional; details: ATCC 27853, 24 h
[38] = system: Escherichia coli; assay: Antibacterial activity against Escherichia coli ATCC 25922 after 24 hrs by micro broth dilution method; type: functional; details: ATCC 25922, 24 h

OC(Cn1cncn1)(Cn1c2ccc(Br)cc2c2cc(Br)ccc21)c1ccc(F)cc1F (stereo not drawn)
Activity [1]: Active
MIC [2]: 4 µg/mL (≈ 7.11 µM)
MIC [3]: 4 µg/mL (≈ 7.11 µM)
MIC [4]: 32 µg/mL (≈ 56.9 µM)
MIC [5]: 8 µg/mL (≈ 14.2 µM)
MIC [6]: 2 µg/mL (≈ 3.56 µM)
Ratio [7]: 2
Ratio [8]: 2
MFC [9]: 8 µg/mL (≈ 14.2 µM)
MFC [10]: 8 µg/mL (≈ 14.2 µM)
MFC [11]: 4 µg/mL (≈ 7.11 µM)
Ratio [12]: 2
Ratio [13]: 2
Ratio [14]: 2
MIC [15]: 0.5 µg/mL
MIC [16]: 2 µg/mL
MIC [17]: 16 µg/mL
fractional inhibitory concentration index (FICI) [18]: 0.25
fractional inhibitory concentration index (FICI) [19]: 0.75
fractional inhibitory concentration index (FICI) [20]: 0.56
Activity [21]: Active
Activity [22]: Dose-dependent effect
Activity [23]: Active
K [24]: 7.8 ×10³ L/mol
Activity [25]: Active
KSV [26]: 10 L/mol
Activity [27]: Active
MIC [28]: 64 µg/mL (≈ 114 µM)
MIC [29]: 4 µg/mL (≈ 7.11 µM)
MIC [30]: 32 µg/mL (≈ 56.9 µM)
MIC [31]: 32 µg/mL (≈ 56.9 µM)
MIC [32]: 16 µg/mL (≈ 28.5 µM)
MIC [33]: 128 µg/mL (≈ 228 µM)
MIC [34]: 16 µg/mL (≈ 28.5 µM)
MIC [35]: 128 µg/mL (≈ 228 µM)
MIC [36]: 64 µg/mL (≈ 114 µM)
MIC [37]: 16 µg/mL (≈ 28.5 µM)
MIC [38]: 32 µg/mL (≈ 56.9 µM)
